According to patent publication US20220202799A1, “PHARMACEUTICAL FORMULATIONS CONTAINING P2Y14 ANTAGONISTS” (priority 2019, published 2022):
Read-outs that look alike come from different tables or passages of the source. Marks after values point to notes of the source that are not given here.

Key:
[1] = Stability of PPTN in SBECD-containing solution under various storage conditions (UHPLC-UV); type: physicochemical; settings: 9 mg/mL PPTN, 12% SBECD; for [PPTN]: in mg/mL
Experimental: The stability of PPTN in SBECD-containing solutions was analyzed under various storage conditions. 20-mL glass vials containing 10 mL of a solution containing 9 mg/mL PPTN and 12% SBECD, as described above, were incubated under various conditions as described in Table 10.
Samples were analyzed by UHPLC-UV as described in Table 11.

[2] = Loss of PPTN due to adherence to surfaces of vessels; type: physicochemical; settings: 200 ng/ml PPTN, no solubilizing agent, 24 hours
Experimental: The loss of PPTN due to adherence to surfaces of vessels was analyzed. PPTN is a hydrophobic compound that may adhere to plastics and other surfaces. To test how much PPTN is lost due to surface adhesion, an aqueous solution containing 200 ng/ml PPTN and less than 0.1% acetonitrile was incubated in the absence of solubilizing agent in various vessels for 24 hours. […]

[3] = Plasma concentrations during 24-hour continuous intravenous infusion; type: in vivo, Sprague-Dawley rats; settings: for Female/Male C24h Ratio: 24-hour intravenous infusion; for concentration at 1 h / concentration at 2 h / concentration at 4 h / concentration at 6 h / concentration at 8 h / concentration at 24 h: Sprague-Dawley, rat, plasma, iv
Experimental: The safety and pharmacokinetics of PPTN (KB-1801) in rats receiving continuous intravenous injections of SBECD-containing solutions were analyzed. Three cohorts of six male and six female rats each were given continuous intravenous infusion of PPTN (KB-1801) at 10 mg/kg/day, 30 mg/kg/day or 100 mg/kg/day in a dosing solution containing PPTN at 0.25 mg/mL, 0.75 mg/mL or 2.5 mg/mL and SBECD at about 3.8%. Dosing volume was 40 mIkg/day. [table]

[4] = Solubility of PPTN in SBECD-containing saline solutions; type: physicochemical; settings: 9 mg/mL PPTN (HCl salt) in 12% SBECD/saline; room temperature for 28 days
Experimental: Sulfobutylether-β-cyclodextrin (SBECD) was tested for the ability to increase the solubility of PPTN in aqueous media.
A stock solution containing 12% SBECD was prepared as follows: 9 mL of saline was added to 1.21 g of SBECD in a 10 mL flask, and the mixture was sonicated for 5 minutes. Saline was then added to achieve a final volume of 10 mL. The pH of the final solution was about 7.
The solubility of PPTN in solutions containing various concentrations of SBECD was analyzed. Excess PPTN was added to saline solutions containing various concentrations of SBECD, insoluble material was removed by filtration, and the PPTN concentration in the filtered solution was analyzed.
A solution containing 9 mg/mL PPTN was prepared as follows. 4.7 mL of 12% SBECD solution, prepared as described above, was added to a 5 mL flask containing 45 mg PPTN (HCl salt), and the mixture was sonicated with heat for 50 minutes. After sonication, 12% SBECD solution to achieve a final volume of 5 mL. The warm solution appeared clear. The solution was allowed to cool to room temperature and was incubated at room temperature for 28 days.

[5] = Plasma pharmacokinetics after single bolus intravenous injection; type: in vivo; settings: male rats; single bolus intravenous injection 0.85, 2.9 or 8.5 mg/kg; SBECD solution
Experimental: The pharmacokinetics of PPTN (KB-1801) in male rats receiving single bolus intravenous injections of SBECD-containing solutions were analyzed. Three cohorts of four rats each were given a single dose of PPTN (KB-1801) at 0.85 mg/kg, 2.9 mg/kg, or 8.5 mg/kg in 1 mL dosing volume.

[6] = female, 10 mg/kg, female Sprague-Dawley rats, 24-hour intravenous infusion at 10 mg/kg, read-out: Plasma concentration, Mean
[7] = female, 10 mg/kg, female Sprague-Dawley rats, 24-hour intravenous infusion at 10 mg/kg, read-out: Plasma concentration, individual animal
[8] = female, 30 mg/kg, female Sprague-Dawley rats, 24-hour intravenous infusion at 30 mg/kg, read-out: Plasma concentration, Mean
[9] = female, 30 mg/kg, female Sprague-Dawley rats, 24-hour intravenous infusion at 30 mg/kg, read-out: Plasma concentration, individual animal
[10] = female, 100 mg/kg, female Sprague-Dawley rats, 24-hour intravenous infusion at 100 mg/kg, read-out: Plasma concentration, Mean
[11] = female, 100 mg/kg, female Sprague-Dawley rats, 24-hour intravenous infusion at 100 mg/kg, read-out: Plasma concentration, individual animal
[12] = male, 10 mg/kg, male Sprague-Dawley rats, 24-hour intravenous infusion at 10 mg/kg, read-out: Plasma concentration, Mean
[13] = male, 10 mg/kg, male Sprague-Dawley rats, 24-hour intravenous infusion at 10 mg/kg, read-out: Plasma concentration, individual animal
[14] = male, 30 mg/kg, male Sprague-Dawley rats, 24-hour intravenous infusion at 30 mg/kg, read-out: Plasma concentration, Mean
[15] = male, 30 mg/kg, male Sprague-Dawley rats, 24-hour intravenous infusion at 30 mg/kg, read-out: Plasma concentration, individual animal
[16] = male, 100 mg/kg, male Sprague-Dawley rats, 24-hour intravenous infusion at 100 mg/kg, read-out: Plasma concentration, Mean
[17] = male, 100 mg/kg, male Sprague-Dawley rats, 24-hour intravenous infusion at 100 mg/kg, read-out: Plasma concentration, individual animal

O=C(O)c1cc(-c2ccc(C3CCNCC3)cc2)c2ccc(-c3ccc(C(F)(F)F)cc3)cc2c1 [KB-1801, 4-[4-(piperidin-4-yl)phenyl]-7-[4-(trifluoromethyl)phenyl]-2-naphthoic acid]
[PPTN] ([1]; 2-5° C., 1d): 8.74
[PPTN] ([1]; 2-5° C., 7d): 8.69
[PPTN] ([1]; 2-5° C., 14d): 8.98
[PPTN] ([1]; 2-5° C., 28d): 8.65
[PPTN] ([1]; 25° C., 0d): 8.72
[PPTN] ([1]; 25° C., 1d): 8.75
[PPTN] ([1]; 25° C., 7d): 8.82
[PPTN] ([1]; 25° C., 14d): 8.69
[PPTN] ([1]; 25° C., 28d): 8.71
[PPTN] ([1]; 40° C., 1d): 8.71
[PPTN] ([1]; 40° C., 7d): 8.71
[PPTN] ([1]; 40° C., 14d): 9.25**
[PPTN] ([1]; 40° C., 28d): 8.73
Degradants in UHPLC-UV trace ([1]; 40° C., 28 days): No degradants were evident
[PPTN] ([1]; 50° C., 1d): 8.78
[PPTN] ([1]; −20° C., 1d (freeze/thaw)): 9.0*
% recovery vs. control ([2]; Corning pipette tip): 22%
% recovery vs. standard ([2]; Corning pipette tip): 6%
% recovery vs. control ([2]; Eppendorf clear conical tube): 19%
% recovery vs. standard ([2]; Eppendorf clear conical tube): 5%
% recovery vs. control ([2]; Eppendorf orange conical tube): 25%
% recovery vs. standard ([2]; Eppendorf orange conical tube): 6%
% recovery vs. control ([2]; Versilon SE200 Tygon tubing): 8%
% recovery vs. standard ([2]; Versilon SE200 Tygon tubing): 2%
% recovery vs. control ([2]; polyetheretherketone tubing): 22%
% recovery vs. standard ([2]; polyetheretherketone tubing): 6%
Female/Male C24h Ratio ([3]; Group 6, 10 mg/kg): 1.36
Female/Male C24h Ratio ([3]; Group 7, 30 mg/kg): 0.88
Female/Male C24h Ratio ([3]; Group 8, 100 mg/kg): 0.93
concentration at 1 h [3, 6]: 216 ng/mL
concentration at 2 h [3, 6]: 281 ng/mL
concentration at 2 h [3, 7]: 383 ng/mL
concentration at 4 h [3, 6]: 426 ng/mL
concentration at 4 h [3, 7]: 445 ng/mL
concentration at 6 h [3, 6]: 569 ng/mL
concentration at 6 h [3, 7]: 726 ng/mL
concentration at 8 h [3, 6]: 526 ng/mL
concentration at 8 h [3, 7]: 678 ng/mL
concentration at 24 h [3, 6]: 954 ng/mL
concentration at 24 h [3, 7]: 753 ng/mL
concentration at 1 h [3, 8]: 641 ng/mL
concentration at 1 h [3, 9]: 603 ng/mL
concentration at 2 h [3, 8]: 1430 ng/mL
concentration at 2 h [3, 9]: 1950 ng/mL
concentration at 4 h [3, 8]: 1530 ng/mL
concentration at 4 h [3, 9]: 1250 ng/mL
concentration at 6 h [3, 8]: 1640 ng/mL
concentration at 6 h [3, 9]: 1390 ng/mL
concentration at 8 h [3, 8]: 1730 ng/mL
concentration at 8 h [3, 9]: 1740 ng/mL
concentration at 24 h [3, 8]: 2500 ng/mL
concentration at 1 h [3, 10]: 2040 ng/mL
concentration at 1 h [3, 11]: 2630 ng/mL
concentration at 2 h [3, 10]: 2310 ng/mL
concentration at 4 h [3, 10]: 5210 ng/mL
concentration at 4 h [3, 11]: 4540 ng/mL
concentration at 6 h [3, 10]: 4300 ng/mL
concentration at 6 h [3, 11]: 3550 ng/mL
concentration at 8 h [3, 10]: 5660 ng/mL
concentration at 8 h [3, 11]: 6390 ng/mL
concentration at 24 h [3, 10]: 8150 ng/mL
concentration at 24 h [3, 11]: 5590 ng/mL
concentration at 1 h [3, 12]: 216 ng/mL
concentration at 1 h [3, 13]: 216 ng/mL
concentration at 2 h [3, 12]: 276 ng/mL
concentration at 2 h [3, 13]: 327 ng/mL
concentration at 4 h [3, 12]: 378 ng/mL
concentration at 6 h [3, 12]: 417 ng/mL
concentration at 6 h [3, 13]: 508 ng/mL
concentration at 8 h [3, 12]: 416 ng/mL
concentration at 8 h [3, 13]: 430 ng/mL
concentration at 24 h [3, 12]: 703 ng/mL
concentration at 1 h [3, 14]: 1020 ng/mL
concentration at 2 h [3, 14]: 1100 ng/mL
concentration at 4 h [3, 14]: 1320 ng/mL
concentration at 4 h [3, 15]: 1460 ng/mL
concentration at 6 h [3, 14]: 1470 ng/mL
concentration at 6 h [3, 15]: 1170 ng/mL
concentration at 8 h [3, 14]: 1500 ng/mL
concentration at 8 h [3, 15]: 1450 ng/mL
concentration at 24 h [3, 14]: 2830 ng/mL
concentration at 24 h [3, 15]: 2880 ng/mL
concentration at 1 h [3, 16]: 2120 ng/mL
concentration at 1 h [3, 17]: 1530 ng/mL
concentration at 2 h [3, 16]: 2760 ng/mL
concentration at 4 h [3, 16]: 3940 ng/mL
concentration at 4 h [3, 17]: 3560 ng/mL
concentration at 6 h [3, 16]: 6660 ng/mL
concentration at 8 h [3, 16]: 5770 ng/mL
concentration at 8 h [3, 17]: 6520 ng/mL
concentration at 24 h [3, 16]: 8740 ng/mL
concentration at 24 h [3, 17]: 10700 ng/mL
Solution appearance [4]: remained clear throughout the entire incubation
PK parameters, relation to dose [5]: linearly dose-related
Pharmacokinetics of plasma PPTN, model [5]: well-described by a 2-compartment model
